The record followed here is US20080182895A1 (priority 2006, published 2008).

SMILES strings stand for the structures. Values joined by “and” are separate entries in the source; they are usually repeats but may differ in a detail not shown here. Equal values may be shown once. Read-outs that look alike come from different tables or passages of the source.

In one data set the test system is 1b, BB7 replicon (WT). Nature of the data set: Replicon 3-day assay, wild type. Conditions: for EC50: Hepatitis C virus. It is filed as cell-based, Hepatitis C virus. As to the method: (§1) pBB7-replicon variant DNAs were linearized with Sca I, and in vitro transcription was performed using Ambion's […]® T7 High Yield Transcription kit (Austin, Tex.). Purified RNA transcripts were electroporated into Huh-7 cells in quadruplicates using a Biorad GENE PULSER® Electroporation System (Setting: 270V, 950 μF) (Hercules, Calif.). Stably transfected replicon variant cell lines were initially selected with 0.25 mg/ml G418 and stepped up to 1 mg/ml before further testing. One cell plate was stained with Crystal Violet to visualize the number of colonies and determine the colony formation efficiency. Individual cell clones from each plate were pooled and expanded for drug susceptibility testing.
(§2) The contribution of individual amino acid changes on drug resistance was assessed in replicon variants containing single amino acid mutations in NS5B in the background of the genotype 1b, BB7 adaptive replicon (Blight et al. (2000) Science 290:1972-74).
(§3) Drug susceptibility of the replicon-containing cells to various compounds was evaluated as described previously (Howe et al. (2004) Antimicrobial Agents Chem. 48:4813-21). Briefly, cells were treated with increasing concentrations of compounds in medium containing 2% FCS and no G418 for three days at 37° C. and 5% CO2. After incubation, total RNA from the replicon-containing cells was isolated. The levels of HCV, glyceraldehyde 3-phosphate dehydrogenase (GAPDH) and ribosomal (rRNA) RNAs were quantified using TAQMAN® (PE Applied Biosystems, Foster City, Calif.) reverse transcriptase PCR reactions. The amounts of HCV, 18S ribosomal, and GAPDH RNAs in each sample were estimated by comparing the number of cycles during the exponential phase of the PCR amplification with those in the corresponding standard curves. HCV RNA standards used for the construction of the standard curve were prepared by extracting the total RNA from the Clone A cells. The RNA sample was sent to National Genetics Institute to quantify HCV RNA. Total RNA extracted from Clone A cells was quantified by O.D.260 measurement and used for construction of the standard curves of rRNA and GAPDH. The concentrations of the compounds that inhibit 50% of the HCV RNA level (EC50) were determined using the MDL® LIFE SCIENCE WORKBENCH® (LSW) Data Analysis software (MDL Information Systems, San Leandro, Calif.) in Microsoft EXCEL®. The amounts of HCV or GAPDH RNAs in the samples were expressed as HCV RNA (copies) or GAPDH (ng), respectively, per μg of total RNA using rRNA as a marker for total RNA measurement.
(In general: In antiviral work, replicon cells carry a viral genome segment that copies itself.)

Data set [1] addresses T1, HCV NS5B enzyme BB7 (C316) (Hepatitis C virus genotype 1b, UniProt Q9WMX2).
T1 construct: according to the protocol for NS5B-BB7dCT21-His as described; His (C); made in house; host or cells: E. coli
The data set is described as follows: biochemical. As to the method:
All NS5B enzymes were expressed and purified according to the protocol for NS5B-BB7dCT21-His as described (Howe et al. (2004) Antimicrobial Agents Chem. 48:4813-21). Briefly, expression plasmids were transformed into E. coli cells and NS5B expression was initiated by the addition of isopropyl-beta-D-thiogalactopyranoside (IPTG). After 4 to 6 hours of incubation the cells were harvested and lysed. NS5B enzymes were purified by chromatography using a nickel affinity column (Talon, B D Biosciences, Clontech Laboratories, Inc., Mountain View, Calif.)) followed by a cation exchange column (Poros H S, Applied Biosystems, Foster City, Calif.).

Data set [2] concerns Clone A cells (genotype 1b HCV replicon). Nature of the data set: Multiple treatments of Clone A cells, HCV RNA level. Format: cell-based, Hepatitis C virus. An excerpt:
The amounts of HCV RNA and rRNA in cell aliquots were estimated using a quantitative duplex TAQMAN® RT-PCR. The Y-axis represents HCV copies per μg of total cellular RNA (using rRNA as a marker for quantification). Each data point represents an average value from three replicates.
As a control, Clone A cells were passaged in parallel in the same medium containing 0.5% DMSO without compound. […] An aliquot of the cells from each passage was collected to monitor the HCV RNA levels.

The subject of data set [3] is GAPDH mRNA in Clone A cells. Format: cell-based, human. Conditions: 0.1 and 1 μM HCV-796, throughout the 16-day period.
Data set [4] deals with 1b, BB7 replicon variants with single NS5B mutations. The data set is described as follows: Replicon variant assay, several variants taken together. Format: cell-based, Hepatitis C virus. As to the method:
as §1, §2, §3

In another data set the test system is 796R(0.1 μM) cells. Nature of the data set: HCV replicon 3-day assay in variant cells. It is filed as cell-based, Hepatitis C virus. As to the method: (§4) All resistant cells were cultured at the indicated drug concentrations in the presence of 0.5 mg/ml G418 for at least 3 weeks before analysis.
(§5) The levels of HCV RNA were determined using a quantitative TAQMAN® RT-PCR (PE Applied Biosystems, Foster City, Calif.).
as §3

For another data set, the system named is 796R(1 μM) cells. The data set is described as follows: HCV replicon 3-day assay in variant cells. It is filed as cell-based, Hepatitis C virus. As to the method:
as §4, §5, §3

In a further data set the test system is 796R(10 μM) cells. Nature of the data set: HCV replicon 3-day assay in variant cells. Format: cell-based, Hepatitis C virus. The method, then: as §4, §5, §3

Regarding `CNC(=O)c1c(-c2ccc(F)cc2)oc2cc(N(CCO)S(C)(=O)=O)c(C3CC3)cc12` [HCV-796, 5-cyclopropyl-2-(4-fluorophenyl)-6-[(2-hydroxyethyl)(methylsulfonyl)amino]-N-methyl-1-benzofuran-3-carboxamide], the “Viral Load Reduction” value in the data set with 1b, BB7 replicon (WT) (1b, BB7, 2240 nM HCV-796, 3-day assay) came to 1.9 ± 0.3 log. Further, the EC50 with 1b, BB7 replicon (WT) is 8.6 nM; with 1b, BB7 replicon (WT) (72 h, 1b, BB7, 3-day assay, read-out: HCV RNA EC50 (nM) ± SD), 3 ± 1 nM; with 796R(0.1 μM) cells (Hepatitis C virus, 796R(0.1 μM) cells, HCV RNA, 72 hours) it was 0.3 ± 0.2 µM; in the data set on 796R(1 μM) cells (Hepatitis C virus, 796R(1 μM) cells, HCV RNA, 72 hours), 8 ± 5.2 µM; with 796R(10 μM) cells (Hepatitis C virus, 796R(10 μM) cells, HCV RNA, 72 hours), more than 88 µM. In addition, half-maximal inhibition in data set [1] (IC50) required 40 nM. In addition, the “decrease in the HCV RNA levels” value is recorded as “about 3.6 log10” in data set [2] (0.1 μM HCV-796, end of 16-day treatment) and approximately 4.2 log10 in data set [2] (1 μM HCV-796, end of 16-day treatment). The “reduction of HCV RNA levels” value in data set [2] (hepatoma cells containing a subgenomic genotype 1b HCV replicon) is 3-4 log10 HCV copies/μg total RNA. The “level of housekeeping gene GAPDH mRNA” value in data set [3] is reported as “remained essentially unchanged”. In data set [4] (I363V and S368F replicon variants), the “effect on the susceptibility to HCV-796 (in words)” value is listed as “modest effect”. Moreover, the Fold Reduced Susceptibility was 3-8 fold in data set [4] (M414I/V replicon variants, range); 23 fold in the data set with 796R(0.1 μM) cells (796R(0.1 μM) cells vs Clone A control); 618 fold in the data set with 796R(1 μM) cells (796R(1 μM) cells vs Clone A control); 6812 fold and >6812 fold in the data set on 796R(10 μM) cells (796R(10 μM) cells vs Clone A control). Moreover, the “Mean log10 Viral Reduction” value in the data set on 796R(0.1 μM) cells (796R(0.1 μM) cells, 56 μM compound, 3-day assay) is 1.4 log10 and 1.4 ± 0.3 (56 μM) log10; in the data set with 796R(1 μM) cells (796R(1 μM) cells, 56 μM compound, 3-day assay), 0.7 log10 and 0.7 ± 0.2 (56 μM) log10; in the data set with 796R(10 μM) cells (796R(10 μM) cells, 56 μM compound, 3-day assay), 0.5 log10 and 0.5 ± 0.3 (56 μM) log10.

The EC50 is the concentration needed to bring the measured effect to its halfway point. In general, IC50 refers to the concentration at which inhibition is half-maximal. Low readings indicate greater potency in that assay, high ones weaker potency in that assay.
